Molecules are shown by their SMILES.

Data on one compound can be found in article PMC8507746, “The FHP01 DDX3X Helicase Inhibitor Exerts Potent Anti-Tumor Activity In Vivo in Breast Cancer Pre-Clinical Models” (Cancers, 2021).

Assay [1] relates to WNT signaling (TCF/LEF transcriptional activity). As to the kind of experiment: TCF/LEF luciferase reporter assay (WNT1/WNT3A) in MDA MB 231 cells. Type of assay: cell-based, human. As to conditions: MDA MB 231, WNT1/WNT3A, 1 μM, 16 hrs. The protocol: MDA MB 231 cells were seeded at 3 × 10^4 cells/well density in 12-well plates, in triplicate, and transfected with 250 ng of the M50 Super 8× TOPFlash reporter vector (Addgene Plasmid #12456) and 1 μg of expression vectors inducing the WNT pathway (Wnt1-V5, Addgene plasmid #43807, and Wnt3A-V5, Addgene plasmid #43810). Eight hours after transfection, cells were treated with FHP01, XAV939 (Merck, Kenilworth, NJ, USA) or DMSO for indicated times prior to lysis in Passive Lysis Buffer (Promega, Madison, WI, USA). Luciferase activity in cellular lysates was assessed on a Glomax 20/20 luminometer (Promega) using the Luciferase Assay System (Promega). Results were normalized for GFP expression, upon transfection with GFP coding vector (1 μg). Representative results from 3 independent experiments are shown (n = 3). Error bars represent the Standard Error of the Mean. All samples were read at least in triplicate.
(Reporter assays use an easily measured gene product as a stand-in for the process of interest.)

The test system of the next assay is phospho-β-catenin. As to the kind of experiment: Western blot of phospho-β-catenin in MDA MB 231 cells. In kind it is cell-based, human. As to conditions: MDA MB 231, 1 μM, 16 hrs; vehicle = 1.00. The protocol: Cells (1 × 10^5) were seeded in 6-well plates. After 24 h, cells were treated for indicated times with DMSO (vehicle) or FHP01 or XAV939 (Merck). After treatments, cells were washed with cold PBS and total protein extracts obtained by adding 80 µL of “RIPA Lysis buffer” (50 mM Tris-HCl pH 8.0, 150 mM NaCl, 0.5% Sodium deoxycholate, 0.1% SDS, 1% NP-40, 2 mM Orthovanadate, 2mM Sodium fluoride, 1mM Dithiothreitol and 1× protease inhibitors). After mechanicals detachment with cell scrapers, total lysates were collected in tubes, vortexed, and incubated for 15 min on ice. Tumors from mice were collected and disrupted by bead homogenization in Lysing Matrix D tubes using a FastPrep-24 5G homogenizer (MP Biomedicals, Solon, OH, USA) filled with “RIPA Lysis buffer” w:v. Next, samples were centrifuged for 10 min at 16,000× g, and supernatants were collected, representing total cell lysates.
Densitometric analysis of western blots was performed with NIH Image J (National Institutes of Health).

Regarding `Oc1nc(-c2ccc(C(F)(F)F)cc2)nc2c1CSCC2` [XAV939, reference compound], the TCF/LEF-dependent transcription entry in assay [1] is “efficient attenuation”. For the same compound, the “Phospho-β-catenin : ERK2” value in the assay on phospho-β-catenin turned out to be 2.64.
